Source: patent US9227919B2, “Arylalkylamine compounds as calcium sensing receptor modulators” (Lupin Limited, priority 2012, dated 2016)
Structures can show the parent of a compound that is named as a salt.

Target: T1, Calcium Sensing Receptor (CaSR) (Homo sapiens, UniProt P41180)
T1 construct: expressed in transfected cells
T1 sequence (P41180 20-1078): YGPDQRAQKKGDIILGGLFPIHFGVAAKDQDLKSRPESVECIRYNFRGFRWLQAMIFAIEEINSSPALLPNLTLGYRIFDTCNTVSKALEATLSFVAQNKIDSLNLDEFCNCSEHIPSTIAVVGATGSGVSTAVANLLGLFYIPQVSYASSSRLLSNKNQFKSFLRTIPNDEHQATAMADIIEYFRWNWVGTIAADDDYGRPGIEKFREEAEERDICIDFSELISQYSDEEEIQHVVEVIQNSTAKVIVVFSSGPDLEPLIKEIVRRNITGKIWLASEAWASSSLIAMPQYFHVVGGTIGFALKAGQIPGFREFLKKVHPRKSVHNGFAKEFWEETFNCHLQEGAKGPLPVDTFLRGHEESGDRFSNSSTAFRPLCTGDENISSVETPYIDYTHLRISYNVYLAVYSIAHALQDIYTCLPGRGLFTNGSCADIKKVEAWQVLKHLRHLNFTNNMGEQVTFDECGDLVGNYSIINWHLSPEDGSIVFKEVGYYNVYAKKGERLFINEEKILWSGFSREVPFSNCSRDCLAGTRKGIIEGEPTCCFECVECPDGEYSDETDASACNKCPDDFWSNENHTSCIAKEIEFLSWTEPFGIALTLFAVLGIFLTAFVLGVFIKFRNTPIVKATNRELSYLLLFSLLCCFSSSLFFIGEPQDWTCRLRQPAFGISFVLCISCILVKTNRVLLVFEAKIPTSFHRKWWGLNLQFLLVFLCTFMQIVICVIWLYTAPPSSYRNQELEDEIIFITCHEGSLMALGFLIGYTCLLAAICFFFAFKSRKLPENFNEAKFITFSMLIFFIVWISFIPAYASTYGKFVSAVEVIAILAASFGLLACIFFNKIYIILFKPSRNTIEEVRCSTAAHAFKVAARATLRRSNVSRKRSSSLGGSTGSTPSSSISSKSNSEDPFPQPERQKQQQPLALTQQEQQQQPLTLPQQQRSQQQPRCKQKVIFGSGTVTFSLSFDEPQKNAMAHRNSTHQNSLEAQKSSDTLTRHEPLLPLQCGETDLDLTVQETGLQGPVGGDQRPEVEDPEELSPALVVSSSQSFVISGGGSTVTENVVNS
Experiment: In-vitro assay of calcimimetics through modulation of Calcium Sensing Receptor (intracellular calcium increase, FLIPR)
Format: cell-based
Details: stably transfected HEK293 cells expressing hCaSR; Fluo4NW dye; 0.3 mM CaCl2; 8-point assay; read-out: EC50 Range
Description: Certain illustrative compounds within the scope of the invention are screened for CaSR activity according to the procedure given below. The screening of the compounds may also be carried by other methods and procedures known to skilled in the art.
In-vitro assay method of Calcimimetics through modulation of Calcium Sensing Receptor (CaSR):
The ability of the compounds to modulate Calcium sensing receptor is determined by measuring an increase in intracellular calcium [Ca^2+]i. Stably transfected HEK293 cells expressing hCaSR_pTriEx-3 hygro vector are developed. Cells are grown overnight on a 96-well plate to 80% confluency in Ham's F12 containing 20% FBS at 37° C., 5% CO2. Subsequently, cells are washed extensively with 20 mM HEPES buffer containing 126 mM […], 1 mM MgCl2 and 4 mM KCl to remove serum components that might interfere with the assay. Cells are loaded with calcium sensing Fluo4NW dye in HEPES base buffer containing 0.1% BSA and lmg/ml glucose for 30 minutes to measure changes in intracellular calcium. The activities of the compounds are measured in FLIPR using 0.3 mM CaCl2 in 20 mM HEPES base buffer. The effectiveness of the compound to modulate receptor activity is determined by calculating the EC50 responses for that compound in an 8-point assay and plotted using GraphPad Prism 5.
The compounds prepared were tested using the above assay procedure and the results obtained are given below.

First: COc1cc([C@@H](C)NCC2Cc3ccccc3N(c3ccc(C)c(C(=O)O)c3)C2)ccc1F (single isomer, unassigned) [Example 73b, hydrochloride]
Second: Cc1ccc(N2CC(CCN[C@H](C)c3cccc4ccccc34)Cc3ccccc32)cc1C(=O)O (single isomer, unassigned) [Example 76b, hydrochloride]
The EC50 of the first is higher: 50 to 200 nM for the first, 20 to 50 nM for the second. The second is the more potent here.

First: C[C@@H](NCC1Cc2ccccc2C(c2cccc(C(=O)O)c2)C1)c1cccc2ccccc12 (single isomer, unassigned) [Example 2b, hydrochloride]
Second: Cc1ccc(C2CC(CN[C@H](C)c3cccc4ccccc34)Cc3ccccc32)cc1C(=O)O (single isomer, unassigned) [Example 8d, hydrochloride]
The EC50 of the first is higher: 50 to 200 nM for the first, 20 to 50 nM for the second. The second is the more potent here.

Cc1ccc(C2C[C@H](CCN[C@H](C)c3ccc(F)c4ccccc34)Cc3ccccc32)cc1C(=O)O (stereo partly drawn) [Example 25, 5-((3S)-3-(2-(((R)-1-(4-Fluoronaphthalen-1-yl)ethyl)amino)ethyl)-1,2,3,4-tetrahydronaphthalen-1-yl)-2-methylbenzoic acid hydrochloride] and Cc1cc(C2CC(N[C@H](C)c3cccc4ccccc34)Cc3ccccc32)ccc1C(=O)O (stereo partly drawn) [Example 23, 2-Methyl-4-(3-(((R)-1-(naphthalen-1-yl)ethyl)amino)-1,2,3,4-tetrahydronaphthalen-1-yl)benzoic acid hydrochloride] fall in the same range of EC50: 20 to 50 nM for the first, 20 to 50 nM for the second.

For Cc1ccc(N2CC(CCN[C@H](C)c3cccc4ccccc34)Cc3ccccc32)cc1OCC(=O)O (single isomer, unassigned) [Example 77b, hydrochloride], the EC50 was < 20 nM.
